Series [1] concerns the target BRAF (Homo sapiens (Human), UniProt P15056). In words: BRAF kinase activity assay (ADP-Glo). The series is classed as biochemical. The following applies: read-out: Kinase IC50 (nM) BRAF. Summed up:
(§1)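 ADP-Glo luminescence assay of BRAF and CRAF kinase reactions with MEK1 substrate and ATP. Reactions ran 2 h at 30 °C with compound over nine concentrations from 100 nM to 0.01 nM, at 0.05% DMSO final. IC50 came from four-parameter variable-slope fits of % inhibition.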
A general note: ADP-Glo turns the ADP formed in a reaction into a luminescent signal.

For series [2], the target named is CRAF (Homo sapiens, UniProt P04049). In words: CRAF kinase activity assay (ADP-Glo). It counts as biochemical. The following applies: read-out: Kinase IC50 (nM) CRAF. In short, it runs like this: as §1
Series [3] is described as follows: Body weight during TGI experiments. The series is classed as in vivo, NU(NCr)-Foxn1nu female mice. The following applies: repeated oral treatment (QD or BID), Example 99 sodium salt suspension. The procedure:
NU(NCr)-Foxn1nu mice were inoculated subcutaneously at the right flank with 1×10^6 (HCT-116 or A375) or 3×10^6 (A101D, A2058, RKO, HT29 SK-MEL 30, Calu-6, HepG2, Lovo, NCI-H2122, NCIH1666 and NCIH1755) tumour cells in 0.2 mL of the 50:50 PBS:Matrigel mixture for tumour development. Tumour measurements were taken with an electronic microcalliper three times weekly. In addition, body weights were recorded at these times. Tumor volume was calculated, taking length to be the longest diameter across the tumor and width to be the corresponding perpendicular diameter using the following formula: ((length×width×[…])/2).
For tumor growth inhibition (TGI) experiments, the treatment was performed when mean tumour size reached approximately 200 mm^3, with at least 7 mice for each time point randomized to balance the average tumour size for each treatment group. Mice were administered orally (QD or BID) with a suspension of Example 99 sodium salt in a formulation consisting of 1% NMP, 0.3% Tween-80, pH 9.1. Example 99: Na+ powder was directly resuspended in the complete blank formulation. Dosing volume was 10 mL/kg, yielding the indicated doses (doses are in mg per kg or mpk). Tumours were measured with an electronic microcalliper three times weekly. In addition, body weights were recorded at these times. Tumor volume was calculated as described above. […]

What is called IC50 is the point on the concentration scale where inhibition reaches its midpoint.

Sequence of CRAF (P04049 whole entry, looked up): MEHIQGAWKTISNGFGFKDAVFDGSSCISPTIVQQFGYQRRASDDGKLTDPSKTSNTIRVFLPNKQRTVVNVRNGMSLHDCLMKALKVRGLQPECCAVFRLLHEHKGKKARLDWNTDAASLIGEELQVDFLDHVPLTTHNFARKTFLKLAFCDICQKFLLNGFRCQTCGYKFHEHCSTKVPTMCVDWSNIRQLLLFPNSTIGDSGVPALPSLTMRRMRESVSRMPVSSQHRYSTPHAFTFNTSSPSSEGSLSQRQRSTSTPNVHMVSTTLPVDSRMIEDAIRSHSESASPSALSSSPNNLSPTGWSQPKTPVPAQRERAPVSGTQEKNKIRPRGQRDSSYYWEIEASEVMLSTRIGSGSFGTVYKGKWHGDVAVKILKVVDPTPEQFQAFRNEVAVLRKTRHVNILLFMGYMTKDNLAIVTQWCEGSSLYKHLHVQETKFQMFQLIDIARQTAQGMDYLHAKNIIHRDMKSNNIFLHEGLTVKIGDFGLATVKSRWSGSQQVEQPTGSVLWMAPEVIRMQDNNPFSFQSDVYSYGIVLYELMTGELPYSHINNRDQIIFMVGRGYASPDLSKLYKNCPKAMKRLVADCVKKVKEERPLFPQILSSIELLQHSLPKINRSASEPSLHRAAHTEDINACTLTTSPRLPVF
Sequence of BRAF (P15056 whole entry): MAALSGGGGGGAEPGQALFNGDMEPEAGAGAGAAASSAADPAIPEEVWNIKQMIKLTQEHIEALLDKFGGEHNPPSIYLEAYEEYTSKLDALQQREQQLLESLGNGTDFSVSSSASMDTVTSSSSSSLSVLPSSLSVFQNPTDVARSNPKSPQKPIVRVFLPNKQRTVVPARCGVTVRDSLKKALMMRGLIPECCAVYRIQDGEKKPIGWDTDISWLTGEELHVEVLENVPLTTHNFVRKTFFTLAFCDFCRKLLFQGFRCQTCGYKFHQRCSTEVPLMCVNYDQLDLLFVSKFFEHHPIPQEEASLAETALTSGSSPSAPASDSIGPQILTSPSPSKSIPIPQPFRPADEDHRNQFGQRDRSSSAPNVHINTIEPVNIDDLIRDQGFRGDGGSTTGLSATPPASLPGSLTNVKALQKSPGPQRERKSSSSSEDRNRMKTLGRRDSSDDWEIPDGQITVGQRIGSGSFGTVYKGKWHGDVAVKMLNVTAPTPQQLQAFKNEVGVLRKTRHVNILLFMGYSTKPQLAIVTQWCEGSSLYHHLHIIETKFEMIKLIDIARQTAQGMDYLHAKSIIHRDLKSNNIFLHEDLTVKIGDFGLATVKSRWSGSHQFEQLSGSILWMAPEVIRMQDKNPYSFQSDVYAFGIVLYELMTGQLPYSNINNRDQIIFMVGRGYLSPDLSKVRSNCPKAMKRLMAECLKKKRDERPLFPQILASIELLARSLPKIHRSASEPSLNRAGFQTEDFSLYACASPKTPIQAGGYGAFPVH

As to `Nc1cccc2c1ncn2-c1ccc2ncnc(Nc3c(F)ccc(NS(=O)(=O)c4cccc(Cl)c4Cl)c3F)c2n1` [Example 99], the IC50 was under 1 nM in series [1] and under 10 nM in series [2]. Further, the “change in body weight compared to vehicle-treated animals” value in series [3] is reported as “did not result in any change in body weight”.
